Measured values taken from patent US10005817B2, “Peptide pharmaceuticals” (EUMEDERIS PHARMACEUTICALS, INC., priority 2012, dated 2018).
Non-standard residues stand in square brackets, D forms with d. Residues, ends and D or L forms follow the SMILES beside them. *: point of attachment. βGlcA(1-O-hexadecyl) = CCCCCCCCCCCCCCCCO[C@@H]1O[C@H](C(=O)*)[C@@H](O)[C@H](O)[C@H]1O; βDGlcA(1-OC18H37) = CCCCCCCCCCCCCCCCCCO[C@@H]1O[C@H](C(=O)*)[C@@H](O)[C@H](O)[C@H]1O; GlcA(β-D,1-O-dodecyl) = CCCCCCCCCCCCO[C@@H]1O[C@H](C(=O)*)[C@@H](O)[C@H](O)[C@H]1O; GlcA(β1-O-octyl) = CCCCCCCCO[C@@H]1O[C@H](C(=O)*)[C@@H](O)[C@H](O)[C@H]1O; βGlcA(1-OMe) = CO[C@@H]1O[C@H](C(=O)*)[C@@H](O)[C@H](O)[C@H]1O; Dmt = Cc1cc(O)cc(C)c1C[C@H](N)C(=O)O; hArg = N=C(N)NCCCC[C@H](N)C(=O)O; Tic = O=C(O)[C@@H]1Cc2ccccc2CN1; Nle = CCCC[C@H](N)C(=O)O; Ac5c = NC1(C(=O)O)CCCC1; Aib = CC(C)(N)C(=O)O; NHBn = c1ccc(CN*)cc1

Key:
[1] = in water; cited from earlier work
PTH receptor (PTHR1) = molecular target: T1, PTH receptor (PTHR1) (Homo sapiens, UniProt Q03431); test: PTH1 cellular assay, cAMP, agonist mode (SaOS2 cells, Cerep); assay type: cell-based; settings: for Emax: SAOS-2, read-out: Maximal response (% PTHrP)
T1 construct: Cerep SA
T1 sequence (Q03431 27-593): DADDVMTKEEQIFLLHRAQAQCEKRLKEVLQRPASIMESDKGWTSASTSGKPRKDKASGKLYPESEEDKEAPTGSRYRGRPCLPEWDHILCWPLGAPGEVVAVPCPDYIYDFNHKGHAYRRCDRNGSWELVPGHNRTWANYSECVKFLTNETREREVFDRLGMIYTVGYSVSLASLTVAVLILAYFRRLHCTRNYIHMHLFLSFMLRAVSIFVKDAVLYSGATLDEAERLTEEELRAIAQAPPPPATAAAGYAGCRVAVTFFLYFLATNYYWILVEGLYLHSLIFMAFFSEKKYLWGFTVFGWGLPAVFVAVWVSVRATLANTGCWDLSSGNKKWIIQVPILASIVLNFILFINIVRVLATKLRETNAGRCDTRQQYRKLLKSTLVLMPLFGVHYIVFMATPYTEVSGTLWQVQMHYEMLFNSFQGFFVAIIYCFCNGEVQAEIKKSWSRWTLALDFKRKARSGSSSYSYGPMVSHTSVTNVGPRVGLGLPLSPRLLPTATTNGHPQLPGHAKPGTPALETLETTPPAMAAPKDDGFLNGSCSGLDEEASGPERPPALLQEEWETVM
Experimental: Compounds were weighed precisely in an amount of approximately 1 mg and assayed in standard cellular assays (cerep SA). The readout is the amount of cAMP generated in the cells treated with the test compounds, in either agonist or antagonist mode.
Compounds were dissolved in water and diluted in assay buffer containing 1% bovine serum albumin.

delta2 opioid receptor = molecular target: T2, delta2 opioid receptor (Mus musculus, UniProt P32300); test: delta2 opioid receptor cellular assay (DOP), antagonist mode vs DPDPE, cAMP readout; assay type: cell-based
T2 construct: Cerep
T2 sequence (P32300 whole entry): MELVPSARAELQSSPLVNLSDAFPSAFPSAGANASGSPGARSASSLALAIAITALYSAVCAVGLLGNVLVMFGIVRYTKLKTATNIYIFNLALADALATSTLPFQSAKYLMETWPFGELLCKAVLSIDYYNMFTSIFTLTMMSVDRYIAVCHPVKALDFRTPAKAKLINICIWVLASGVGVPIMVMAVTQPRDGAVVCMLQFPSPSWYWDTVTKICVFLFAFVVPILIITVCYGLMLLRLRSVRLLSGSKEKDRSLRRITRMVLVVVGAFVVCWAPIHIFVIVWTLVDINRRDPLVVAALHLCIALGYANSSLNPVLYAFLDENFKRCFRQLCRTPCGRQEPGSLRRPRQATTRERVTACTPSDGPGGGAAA
Experimental: (§1) Compounds were weighed precisely in an amount of approximately 2 mg and assayed in standard cellular assays by the contract research organization Cerep, Inc. (Pullman, Wash.) as executed at their subsidiary, Cerep SA (Le Bois l'Eveque, France). The readout is the amount of cAMP generated in the cells treated with the test compounds, in either agonist or antagonist mode. The assays used were the mu opioid receptor cellular assay (MOP in agonist and antagonist mode), the delta2 opioid receptor cellular assay (DOP in agonist and antagonist mode) and the kappa opioid receptor cellular assay (KOP in agonist and antagonist mode). The assays used are described in Wang, J. B., et al. (1994) FEBS Lett 338: 217-222, Law, P. Y. and Loh, H. H. (1993) Mol Pharmacol 43: 684-693, and Avidor-Reiss, T., et al. (1995) FEBS Lett 361: 70-74. The stimulant for the cells in the DOR antagonist assay was 3×10E-8M DPDPE, a well-accepted DOR literature standard.

mu opioid receptor = molecular target: T3, mu opioid receptor (Homo sapiens, UniProt P35372); test: mu opioid receptor cellular assay (MOP), agonist mode, cAMP readout (Cerep); assay type: cell-based
T3 construct: Cerep
T3 sequence (P35372 whole entry): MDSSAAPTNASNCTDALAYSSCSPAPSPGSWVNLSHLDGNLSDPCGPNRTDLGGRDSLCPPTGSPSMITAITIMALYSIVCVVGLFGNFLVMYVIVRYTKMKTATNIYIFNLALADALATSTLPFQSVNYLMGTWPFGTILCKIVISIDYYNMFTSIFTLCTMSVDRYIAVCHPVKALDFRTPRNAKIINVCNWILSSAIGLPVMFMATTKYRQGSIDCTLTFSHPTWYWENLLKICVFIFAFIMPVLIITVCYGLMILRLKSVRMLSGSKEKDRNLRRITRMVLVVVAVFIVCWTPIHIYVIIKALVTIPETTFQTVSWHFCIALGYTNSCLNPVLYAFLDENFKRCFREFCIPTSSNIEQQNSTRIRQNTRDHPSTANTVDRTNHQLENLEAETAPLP
Experimental: as §1

[2] = plasma protease stability, incubation in human plasma at 37 degC, LC-MS; assay type: in vitro ADME; settings: over 8 hrs

| Compound | CMC [1] | Characterization (DOP) (delta2 opioid receptor) | Characterization (MOP) (mu opioid receptor) | further results |
| --- | --- | --- | --- | --- |
| CCCCCCCCCCCCCCO[C@@H]1O[C@H](CO)[C@@H](O[C@@H]2O[C@@H](CO)[C@H](O)[C@@H](O)[C@@H]2O)[C@H](O)[C@H]1O (stereo in doubt) [Tetradecyl maltoside] | 0.01 mM | – | – | – |
| CCCCCCCCCCCCCO[C@@H]1O[C@H](CO)[C@@H](OC2OC(CO)C(O)C(O)C2O)[C@H](O)[C@H]1O (stereo in doubt) [Tridecyl maltoside] | 0.03 mM | – | – | – |
| CCCCCCCCCCO[C@@H]1O[C@H](CO)[C@@H](O[C@H]2O[C@H](CO)[C@@H](O)[C@H](O)[C@H]2O)[C@H](O)[C@H]1O [Decyl maltoside] | 1.8 mM | – | – | – |
| CCCCCCCCCCCCO[C@@H]1O[C@H](CO)[C@@H](O[C@H]2O[C@H](CO)[C@@H](O)[C@H](O)[C@H]2O)[C@H](O)[C@H]1O [Dodecyl-β-D-maltoside] | 0.17 mM | – | – | – |
| CCCCCCCCCCCCCCCCO[C@@H]1O[C@H](C(=O)NCCCC[C@H](NC(=O)C(C)(C)NC(=O)[C@H](CCC(N)=O)NC(=O)[C@@H](NC(=O)[C@H](Cc2c[nH]c3ccccc23)NC(=O)[C@H](CCCNC(=N)N)NC(=O)[C@H](C)NC(=O)[C@H](CCCCNC(=N)N)NC(=O)[C@H](CCC(N)=O)NC(=O)[C@H](Cc2c[nH]cn2)NC(=O)[C@H](CCCC)NC(=O)[C@H](CC(C)C)NC(=O)[C@H](CCC(N)=O)NC(=O)[C@@H](NC(=O)[C@H](CCC(=O)O)NC(=O)C(C)(C)NC(=O)[C@@H](NC(=O)C2(N)CCCC2)C(C)C)[C@@H](C)CC)[C@@H](C)CC)C(=O)NC(C)(C)C(N)=O)[C@@H](O)[C@H](O)[C@H]1O [EU-287, Ac5c1-VaL2-Aib3-Glu4-Ile5-Gln6-Leu7-Nle8-His9-Gln10-hArg11-Ala12-Arg13-TrP14-Ile15-Gln16-Aib17-Lys(N-epsilon-1′-hexadecylbeta-D-glucuronyL)18-Aib19-NH2] (H-[Ac5c]V[Aib]EIQL[Nle]HQ[hArg]ARWIQ[Aib]K(βGlcA(1-O-hexadecyl))[Aib]-NH2) | – | – | – | Characterization (PTH receptor (PTHR1)): agonist; EC50 (PTH receptor (PTHR1)): < 1 nM; Emax (PTH receptor (PTHR1)): 128% |
| CCCCCCCCCCCCCCCCCCO[C@@H]1O[C@H](C(=O)NCCCC[C@H](NC(=O)C(C)(C)NC(=O)[C@H](CCC(N)=O)NC(=O)[C@@H](NC(=O)[C@H](Cc2c[nH]c3ccccc23)NC(=O)[C@H](CCCNC(=N)N)NC(=O)[C@H](C)NC(=O)[C@H](CCCCNC(=N)N)NC(=O)[C@H](CCC(N)=O)NC(=O)[C@H](Cc2c[nH]cn2)NC(=O)[C@H](CCCC)NC(=O)[C@H](CC(C)C)NC(=O)[C@H](CCC(N)=O)NC(=O)[C@@H](NC(=O)[C@H](CCC(=O)O)NC(=O)C(C)(C)NC(=O)[C@@H](NC(=O)C2(N)CCCC2)C(C)C)[C@@H](C)CC)[C@@H](C)CC)C(=O)NC(C)(C)C(N)=O)[C@@H](O)[C@H](O)[C@H]1O [EU-288, Ac5c1-VaL2-Aib3-Glu4-Ile5-Gln6-Leu7-Nle8-His9-Gln10-hArg11-Ala12-Arg13-Trp14-Ile15-Gln16-Aib17-Lys(N-epsilon-1′-octadecylbeta-D-glucuronyl)18-Aib19-NH2] (H-[Ac5c]V[Aib]EIQL[Nle]HQ[hArg]ARWIQ[Aib]K(βDGlcA(1-OC18H37))[Aib]-NH2) | – | – | – | Characterization (PTH receptor (PTHR1)): agonist; EC50 (PTH receptor (PTHR1)): < 1 nM; Emax (PTH receptor (PTHR1)): 130% |
| CCCCCCCCCCCCO[C@@H]1O[C@H](C(=O)NCCCC[C@H](NC(=O)[C@H](Cc2ccccc2)NC(=O)[C@@H]2Cc3ccccc3CN2C(=O)[C@@H](N)Cc2c(C)cc(O)cc2C)C(N)=O)[C@@H](O)[C@H](O)[C@H]1O [EU-A179, Dmt-Tic-Phe-Lys(C12-glucuronyl)-NH2] (H-[Dmt][Tic]FK(GlcA(β-D,1-O-dodecyl))-NH2) | – | pure DOP antag | Pure MOP Ag; | – |
| CCCCCCCCO[C@@H]1O[C@H](C(=O)NCCCC[C@H](NC(=O)[C@H](Cc2ccccc2)NC(=O)[C@@H]2Cc3ccccc3CN2C(=O)[C@@H](N)Cc2c(C)cc(O)cc2C)C(N)=O)[C@@H](O)[C@H](O)[C@H]1O [EU-A180, Dmt-Tic-Phe-Lys(C8-glucuronyl)-NH2] (H-[Dmt][Tic]FK(GlcA(β1-O-octyl))-NH2) | – | pure DOP antag | Pure MOP Ag; | EC50 (mu opioid receptor): 36 nM |
| CO[C@@H]1O[C@H](C(=O)NCCCC[C@H](NC(=O)[C@H](Cc2ccccc2)NC(=O)[C@H](Cc2ccccc2)NC(=O)[C@@H]2Cc3ccccc3CN2C(=O)[C@@H](N)Cc2c(C)cc(O)cc2C)C(N)=O)[C@@H](O)[C@H](O)[C@H]1O [EU-A189, 2′,6′-dimethyl-L-tyrosyl-L-1,2,3,4-tetrahydroisoquinoline-3-carbonyl-L-phenylalanyl-L-phenylalanyl-Nε-(1′-methyl β-D-glucuronyl)-L-lysyl-amide] | – | pure DOP antag | Pure MOP Ag; | EC50 (mu opioid receptor): 41 nM |
| CCCCCCCCCCCCO[C@@H]1O[C@H](C(=O)NCCCC[C@H](NC(=O)[C@H](Cc2ccccc2)NC(=O)[C@H](Cc2ccccc2)NC(=O)[C@@H]2Cc3ccccc3CN2C(=O)[C@@H](N)Cc2c(C)cc(O)cc2C)C(N)=O)[C@@H](O)[C@H](O)[C@H]1O [EU-A190, Dmt-Tic-Phe-Phe-Lys(C12-glucuronyl)-NH2] | – | pure DOP antag | Pure MOP Ag; | – |
| CO[C@@H]1O[C@H](C(=O)NCCCC[C@H](NC(=O)[C@H](Cc2ccccc2)NC(=O)[C@@H]2Cc3ccccc3CN2C(=O)[C@@H](N)Cc2c(C)cc(O)cc2C)C(=O)NC(C)(C)C(N)=O)[C@@H](O)[C@H](O)[C@H]1O [EU-A600, Dmt-Tic-Phe-Lys(C1-glucuronyl)-Aib-NH2] (H-[Dmt][Tic]FK(βGlcA(1-OMe))[Aib]-NH2; N-terminus assumed) | – | pure DOP antag | Pure MOP Ag; | EC50 (mu opioid receptor): 110 nM |
| CO[C@@H]1O[C@H](C(=O)NCCCC[C@@H](NC(=O)[C@H](Cc2ccccc2)NC(=O)[C@@H]2Cc3ccccc3CN2C(=O)[C@@H](N)Cc2c(C)cc(O)cc2C)C(N)=O)[C@@H](O)[C@H](O)[C@H]1O [EU-A615, Dmt-Tic-Phe-D-Lys(C1-glucuronyl)-Aib-NH2] (H-[Dmt][Tic]F[dK](βGlcA(1-OMe))-NH2) | – | pure DOP antag | Pure MOP Ag; | – |
| CO[C@@H]1O[C@H](C(=O)NCCCC[C@H](NC(=O)[C@H](Cc2ccccc2)NC(=O)[C@@H]2Cc3ccccc3CN2C(=O)[C@@H](N)Cc2c(C)cc(O)cc2C)C(=O)NCc2ccccc2)[C@@H](O)[C@H](O)[C@H]1O [EU-A620, Dmt-Tic-Phe-Lys(C1-glucuronyl)-NHCH2Ph] (H-[Dmt][Tic]FK(βGlcA(1-OMe))-NHBn) | – | pure DOP antag | Pure MOP Ag; | EC50 (mu opioid receptor): 480 nM |
| CO[C@@H]1O[C@H](C(=O)NCCCC[C@@H](NC(=O)[C@H](Cc2ccccc2)NC(=O)[C@@H]2Cc3ccccc3CN2C(=O)[C@@H](N)Cc2c(C)cc(O)cc2C)C(=O)NCc2ccccc2)[C@@H](O)[C@H](O)[C@H]1O [EU-A639, Dmt-Tic-Phe-D-Lys(C1-glucuronyl)-NHCH2Ph] (H-[Dmt][Tic]F[dK](βGlcA(1-OMe))-NHBn; N-terminus assumed) | – | pure DOP antag | Pure MOP Ag; | EC50 (mu opioid receptor): 280 nM |
| CC[C@H](C)[C@H](NC(=O)[C@H](Cc1ccccc1)NC(=O)[C@H](CCC(=O)O)NC(=O)[C@H](CCCCN)NC(=O)[C@H](C)NC(=O)[C@H](C)NC(=O)[C@H](CCC(N)=O)NC(=O)CNC(=O)[C@H](CCC(=O)O)NC(=O)[C@H](CC(C)C)NC(=O)[C@H](Cc1ccc(O)cc1)NC(=O)[C@H](CO)NC(=O)[C@H](CO)NC(=O)[C@@H](NC(=O)[C@H](CC(=O)O)NC(=O)[C@H](CO)NC(=O)[C@@H](NC(=O)[C@H](Cc1ccccc1)NC(=O)[C@@H](NC(=O)CNC(=O)[C@H](CCC(=O)O)NC(=O)[C@H](C)NC(=O)[C@@H](N)Cc1c[nH]cn1)[C@@H](C)O)[C@@H](C)O)C(C)C)C(=O)N[C@@H](C)C(=O)N[C@@H](Cc1c[nH]c2ccccc12)C(=O)N[C@@H](CC(C)C)C(=O)N[C@H](C(=O)N[C@@H](CCCCN)C(=O)NCC(=O)N[C@@H](CCCNC(=N)N)C(N)=O)C(C)C [GLP-1 (7-36), reference compound] | – | – | – | amount of intact compound versus time in human plasma [2]: rapid decrease |
| CCCCCCCCO[C@@H]1O[C@H](CO)[C@@H](O[C@H]2O[C@H](CO)[C@@H](O)[C@H](O)[C@H]2O)[C@H](O)[C@H]1O [Octyl maltoside] | 19.5 mM | – | – | – |
| Sucrose dodecanoate | 0.3 mM | – | – | – |
